From the supplement of paper PMC10307832

Assays:
Assay in all cases: relative viability (nuclei count vs DMSO), 5 days (fraction); higher = more cells survive
Sulindac + Dasatinib = compound: CC1=C(CC(=O)O)c2cc(F)ccc2/C1=C\c1ccc([S+](C)[O-])cc1 [Sulindac] + Cc1nc(Nc2ncc(C(=O)Nc3c(C)cccc3Cl)s2)cc(N2CCN(CCO)CC2)n1 [Dasatinib] (partner 0.075 µM)
Outline: (§1)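 Each reported value is a median over duplicate plates. It expresses relative viability: treated-well nuclei count divided by vehicle-well nuclei count. Lung cancer cell lines in 1536-well plates were dosed by pin tool a day after seeding, alone with one drug or with a fixed anchor-drug dose plus five library-drug doses (not always all listed) in √10 steps, and nuclei were counted after 5 days.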

Sulindac + Pemetrexed = compound: CC1=C(CC(=O)O)c2cc(F)ccc2/C1=C\c1ccc([S+](C)[O-])cc1 [Sulindac] + Nc1nc2[nH]cc(CCc3ccc(C(=O)N[C@@H](CCC(=O)O)C(=O)O)cc3)c2c(=O)[nH]1 [Pemetrexed] (partner 0.2 µM)
Outline: as §1

[1] = compound: CN[C@@H]1C[C@H]2O[C@@](C)([C@@H]1OC)n1c3ccccc3c3c4c(c5c6ccccc6n2c5c31)C(=O)NC4 [Staurosporine] + C[C@]1(O)C[C@@H](c2nc(-c3ccc4ccc(-c5ccccc5)nc4c3)c3c(N)nccn32)C1 [Linsitinib] (partner 1 µM)
Outline: as §1

[2] = compound: O=c1[nH]cc(F)c(=O)[nH]1 [5-Fluorouracil] + CS(=O)(=O)CCNCc1ccc(-c2ccc3ncnc(Nc4ccc(OCc5cccc(F)c5)c(Cl)c4)c3c2)o1 [Lapatinib] (partner 2 µM)
Outline: as §1

Cell Line: UMC-11
- relative viability (Sulindac + Dasatinib; first compound 0.08 µM): 0.613
- relative viability (Sulindac + Dasatinib; first compound 0.253 µM): 0.531
- relative viability (Sulindac + Dasatinib; first compound 0.8 µM): 0.362
- relative viability (Sulindac + Dasatinib; first compound 2.53 µM): 0.46
- relative viability (Sulindac + Dasatinib; first compound 8 µM): 0.507
- relative viability (Sulindac + Pemetrexed; first compound 0.08 µM): 0.853
- relative viability (Sulindac + Pemetrexed; first compound 0.253 µM): 0.808
- relative viability (Sulindac + Pemetrexed; first compound 0.8 µM): 0.582
- relative viability (Sulindac + Pemetrexed; first compound 2.53 µM): 0.747
- relative viability (Sulindac + Pemetrexed; first compound 8 µM): 0.868
- relative viability ([1]; first compound 0.005 µM): 0.901
- relative viability ([1]; first compound 0.01581 µM): 0.569
- relative viability ([1]; first compound 0.05 µM): 0.583
- relative viability ([1]; first compound 0.1581 µM): 0.126
- relative viability ([1]; first compound 0.5 µM): 0.0837
- relative viability ([2]; first compound 0.02 µM): 0.905
- relative viability ([2]; first compound 0.2 µM): 0.746
- relative viability ([2]; first compound 0.6325 µM): 0.434
- relative viability ([2]; first compound 2 µM): 0.443
